Test results reported in patent US8263046B2, “N-phenyl-N-pyridinyl-benzamides and benzenesulfonomides having cooling properties” (Givaudan S.A., priority 2005, dated 2012).

What follows are compounds tested on panelists (assay: Experiments on cooling properties/intensities: panelists taste aqueous solutions). Details: aqueous solution with cooling intensity similar or slightly higher than that of a solution of I-menthol at 2 ppm.
Type: in vivo
`COc1ccc(S(=O)(=O)N(CCc2ccccn2)c2ccccc2)cc1` [Example 2, 4-Methoxy-N-phenyl-N-[2-(pyridin-2-yl)ethyl]benzenesulfonamide] gave a Concentration of 2 ppm. Work on `CCNC(=O)C1CC(C)CCC1C(C)C` (stereo not shown) [WS-3, N-ethyl p-menthanecarboxamide, reference compound] yielded a Concentration of 1.5 ppm. Compound `O=S(=O)(c1ccc(Cl)cc1)N(CCc1ccccn1)c1ccccc1` [Example 3a, 4-Chloro-N-phenyl-N-[2-(pyridin-2-yl)ethyl]benzenesulfonamide] has a Concentration of 2 ppm. `COc1ccc(C(=O)N(CCc2ccccn2)c2ccccc2)cc1` [Example 1, 4-Methoxy-N-phenyl-N-[2-(pyridin-2-yl)ethyl]benzamide] showed a Concentration of 1.5 ppm.
